Laboratory results: US20250129078A1, “ERBB2 INHIBITORS” (Cogent Biosciences, Inc., priority 2023, published 2025)

Target: EGFR WT (Homo sapiens (Human), UniProt P00533)
Assay: ErbB enzyme assay (CisBio HTRF-KinEASE-TK), EGFR WT
Assay type: biochemical
Conditions: ATP at Km (25 μM), 1 h incubation
Experimental: In vitro enzyme assays based on CisBio HTRF-KinEASE-TK technology were used to determine compound potencies. […]. Compounds were prepared as a three-fold serial dilution in DMSO and added to the assay to give the appropriate final concentration. After a 1 h incubation at ambient temperature, the reaction was quenched by adding 10 μL of 62.5 nM Sa-XL665 and 0.25×TK-Ab-Cryptate in HTRF detection buffer (all from CisBio, part of cat #62TKOPEC). After another 1 h incubation at ambient temperature, the extent of substrate phosphorylation was determined using a PerkinElmer EnVision multimode plate reader via time-resolved fluorescence dual wavelength detection. The percent of control (POC) was calculated using the ratio of emission at […] to the emission at 620 nm. One hundred POC was determined using DMSO only controls (no test compounds present) and zero POC was determined using pre-quenched controls reactions. A 4-parameter logistic equation was fit to the POC values as a function of the test compound concentration and the IC50 value was determined as the point where the curve crossed 50 POC.

Sequence of EGFR WT (P00533 25-1210): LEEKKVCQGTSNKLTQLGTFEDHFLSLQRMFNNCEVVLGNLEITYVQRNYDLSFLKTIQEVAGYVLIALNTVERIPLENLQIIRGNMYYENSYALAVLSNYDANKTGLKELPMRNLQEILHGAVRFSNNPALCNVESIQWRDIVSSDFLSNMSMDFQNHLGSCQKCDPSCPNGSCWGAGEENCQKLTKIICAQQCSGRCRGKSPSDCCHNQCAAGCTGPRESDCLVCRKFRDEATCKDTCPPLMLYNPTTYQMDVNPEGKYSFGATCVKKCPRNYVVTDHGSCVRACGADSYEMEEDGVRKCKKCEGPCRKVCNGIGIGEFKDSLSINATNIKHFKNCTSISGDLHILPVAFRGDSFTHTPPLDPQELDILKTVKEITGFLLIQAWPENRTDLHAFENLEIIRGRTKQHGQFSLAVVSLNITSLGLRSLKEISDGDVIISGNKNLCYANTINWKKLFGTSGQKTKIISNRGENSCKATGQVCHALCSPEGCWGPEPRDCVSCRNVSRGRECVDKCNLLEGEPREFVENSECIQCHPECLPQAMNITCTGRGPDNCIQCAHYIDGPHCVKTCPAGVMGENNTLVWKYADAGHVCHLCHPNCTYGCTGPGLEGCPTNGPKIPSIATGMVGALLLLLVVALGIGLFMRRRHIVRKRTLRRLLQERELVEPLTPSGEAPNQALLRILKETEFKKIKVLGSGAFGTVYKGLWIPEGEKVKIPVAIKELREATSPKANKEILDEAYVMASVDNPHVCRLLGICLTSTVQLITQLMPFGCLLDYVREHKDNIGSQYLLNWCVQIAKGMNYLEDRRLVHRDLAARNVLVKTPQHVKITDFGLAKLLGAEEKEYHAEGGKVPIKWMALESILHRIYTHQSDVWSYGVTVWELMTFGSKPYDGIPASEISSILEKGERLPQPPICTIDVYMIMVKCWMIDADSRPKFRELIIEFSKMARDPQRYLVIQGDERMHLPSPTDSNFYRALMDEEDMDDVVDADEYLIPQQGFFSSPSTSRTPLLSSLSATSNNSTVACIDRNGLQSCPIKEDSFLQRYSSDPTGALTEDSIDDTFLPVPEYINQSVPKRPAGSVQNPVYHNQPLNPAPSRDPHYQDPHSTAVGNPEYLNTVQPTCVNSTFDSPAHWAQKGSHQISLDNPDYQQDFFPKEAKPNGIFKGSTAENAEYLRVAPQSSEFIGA

Compound | IC50 [nM]
C=CC(=O)N1CCN(c2ncc3ncnc(Nc4ccc(Oc5ccc6c(c5)nnn6C)c(C(F)(F)F)c4)c3n2)CC1 [Compound 43, 1-(4-(8-((4-((1-methyl-1H-benzo[d][1,2,3]triazol-5-yl)oxy)-3-(trifluoromethyl)phenyl)amino)pyrimido[5,4-d]pyrimidin-2-yl)piperazin-1-yl)prop-2-en-1-one] | 100 to 500
C=CC(=O)N1C2CCC1CN(c1ncc3ncnc(Nc4ccc(Oc5ccc6c(c5)nnn6C)c(C)c4)c3n1)C2 [Compound 47, 1-(3-(8-((3-methyl-4-((1-methyl-1H-benzo[d][1,2,3]triazol-5-yl)oxy)phenyl)amino)pyrimido[5,4-d]pyrimidin-2-yl)-3,8-diazabicyclo[3.2.1]octan-8-yl)prop-2-en-1-one] | 100 to 500
C=C(F)C(=O)N1CC2CCC1CN2c1ncc2ncnc(Nc3ccc(Oc4ccc5c(c4)nnn5C)c(C)c3)c2n1 (stereo not drawn) [Compound 50, 2-fluoro-1-(5-(8-((3-methyl-4-((1-methyl-1H-benzo[d][1,2,3]triazol-5-yl)oxy)phenyl)amino)pyrimido[5,4-d]pyrimidin-2-yl)-2,5-diazabicyclo[2.2.2]octan-2-yl)prop-2-en-1-one] | ≥ 1000
C=C(F)C(=O)N1C2CCC1CN(c1ncc3ncnc(Nc4ccc(Oc5ccc6c(c5)nnn6C)c(C)c4)c3n1)C2 [Compound 51, 2-fluoro-1-(3-(8-((3-methyl-4-((1-methyl-1H-benzo[d][1,2,3]triazol-5-yl)oxy)phenyl)amino)pyrimido [5,4-d]pyrimidin-2-yl)-3,8-diazabicyclo [3.2.1]octan-8-yl)prop-2-en-1-one 2,2,2-trifluoroacetate] | ≥ 1000
C=C(COC)C(=O)N1CCN(c2ncc3ncnc(Nc4ccc(Oc5ccc6c(c5)nnn6C)c(C)c4)c3n2)CC1 [Compound 54, 2-(methoxymethyl)-1-(4-(8-((3-methyl-4-((1-methyl-1H-benzo[d][1,2,3]triazol-5-yl)oxy)phenyl)amino)pyrimido [5,4-d]pyrimidin-2-yl)piperazin-1-yl) prop-2-en-1-one] | ≥ 1000
C=CC(=O)N(C)C1C2CN(c3ncc4ncnc(Nc5ccc(Oc6cc(F)c7c(c6)nnn7C)c(C)c5F)c4n3)CC21 (stereo not drawn) [Compound 68, N-(3-(8-((2-fluoro-4-((7-fluoro-1-methyl-1H-benzo[d][1,2,3]triazol-5-yl)oxy)-3-methylphenyl)amino)pyrimido[5,4-d]pyrimidin-2-yl)-3-azabicyclo[3.1.0]hexan-6-yl)-N-methylacrylamide] | 50 to 100
C=CC(=O)N1CCN(c2ccc3ncnc(Nc4ccc(Oc5ccc6c(c5)nnn6C)c(C)c4)c3n2)C[C@@H]1C [Compound 72, (S)-1-(2-methyl-4-(4-((3-methyl-4-((1-methyl-1H-benzo[d][1,2,3]triazol-5-yl)oxy)phenyl)amino)pyrido[3,2-d]pyrimidin-6-yl)piperazin-1-yl)prop-2-en-1-one] | 100 to 500
C=CC(=O)N1CCN(c2ccc3ncnc(Nc4ccc(Oc5ccc6c(c5)nnn6C)c(C)c4)c3n2)C[C@H]1C [Compound 73, (R)-1-(2-methyl-4-(4-((3-methyl-4-((1-methyl-1H-benzo[d][1,2,3]triazol-5-yl)oxy)phenyl)amino)pyrido[3,2-d]pyrimidin-6-yl)piperazin-1-yl)prop-2-en-1-one] | 100 to 500
C=CC(=O)N1CCN(c2ccc3ncnc(Nc4ccc(Oc5ccc6c(c5)nnn6C)c(C)c4)c3n2)C[C@@H]1COC [Compound 78, (R)-1-(2-(methoxymethyl)-4-(4-((3-methyl-4-((1-methyl-1H-benzo[d][1,2,3]triazol-5-yl)oxy)phenyl)amino)pyrido[3,2-d]pyrimidin-6-yl)piperazin-1-yl)prop-2-en-1-one] | 100 to 500
C=CC(=O)N1CCN(c2ccc3ncnc(Nc4cc(C)c(Oc5ccc6c(c5)nnn6C)cc4OC)c3n2)CC1 [Compound 79, 1-(4-(4-((2-methoxy-5-methyl-4-((1-methyl-1H-benzo[d][1,2,3]triazol-5-yl)oxy)phenyl)amino)pyrido[3,2-d]pyrimidin-6-yl)piperazin-1-yl)prop-2-en-1-one] | 100 to 500

Second part, the compound after the results:

IC50 [nM] | Compound
50 to 100 | C=CC(=O)N1CCN(c2ncc3ncnc(Nc4ccc(Oc5ccc6c(c5)nnn6C)c(F)c4F)c3n2)CC1 [Compound 44, 1-(4-(8-((2,3-difluoro-4-((1-methyl-1H-benzo[d][1,2,3]triazol-5-yl)oxy)phenyl)amino)pyrimido[5,4-d]pyrimidin-2-yl)piperazin-1-yl)prop-2-en-1-one]
< 50 | C=CC(=O)N1CC2CCC(C1)N2c1ncc2ncnc(Nc3ccc(Oc4ccc5c(c4)nnn5C)c(C)c3)c2n1 [Compound 46, 1-(8-(8-((3-methyl-4-((1-methyl-1H-benzo[d][1,2,3]triazol-5-yl)oxy)phenyl)amino)pyrimido[5,4-d]pyrimidin-2-yl)-3,8-diazabicyclo[3.2.1]octan-3-yl)prop-2-en-1-one]
< 50 | C=CC(=O)N1CC2CCC1CN2c1ncc2ncnc(Nc3ccc(Oc4ccc5c(c4)nnn5C)c(C)c3)c2n1 (stereo not drawn) [Compound 62, 1-(5-(8-((3-methyl-4-((1-methyl-1H-benzo[d][1,2,3]triazol-5-yl)oxy)phenyl)amino)pyrimido[5,4-d]pyrimidin-2-yl)-2,5-diazabicyclo[2.2.2]octan-2-yl)prop-2-en-1-one]
< 50 | C=CC(=O)N1CC(N(C)c2ncc3ncnc(Nc4ccc(Oc5ccc6c(c5)nnn6C)c(C)c4F)c3n2)C1 [Compound 69, 1-(3-((8-((2-fluoro-3-methyl-4-((1-methyl-1H-benzo[d][1,2,3]triazol-5-yl)oxy)phenyl)amino)pyrimido[5,4-d]pyrimidin-2-yl)(methyl)amino)azetidin-1-yl)prop-2-en-1-one]
< 50 | C=CC(=O)N1CC2CCC(C1)N2c1ccc2ncnc(Nc3ccc(Oc4ccc5c(c4)nnn5C)c(C)c3)c2n1 [Compound 71, 1-(8-(4-((3-methyl-4-((1-methyl-1H-benzo[d][1,2,3]triazol-5-yl)oxy)phenyl)amino)pyrido[3,2-d]pyrimidin-6-yl)-3,8-diazabicyclo[3.2.1]octan-3-yl)prop-2-en-1-one]
< 50 | C=CC(=O)N1CCN(c2ccc3ncnc(Nc4ccc(Oc5ccc6c(c5)nnn6C)c(C)c4)c3n2)CC12CC2 [Compound 74, 1-(7-(4-((3-methyl-4-((1-methyl-1H-benzo[d][1,2,3]triazol-5-yl)oxy)phenyl)amino)pyrido[3,2-d]pyrimidin-6-yl)-4,7-diazaspiro[2.5]octan-4-yl)prop-2-en-1-one]
< 50 | C=CC(=O)N1CCN(c2ccc3ncnc(Nc4ccc(Oc5ccc6c(c5)nnn6C)c(C)c4)c3n2)C2CC21 (stereo not drawn) [Compound 75, 1-(5-(4-((3-methyl-4-((1-methyl-1H-benzo[d][1,2,3]triazol-5-yl)oxy)phenyl)amino)pyrido[3,2-d]pyrimidin-6-yl)-2,5-diazabicyclo[4.1.0]heptan-2-yl)prop-2-en-1-one]
< 50 | C=CC(=O)N1CCN(c2ccc3ncnc(Nc4ccc(Oc5ccc6c(c5)nnn6C)c(C)c4)c3n2)C[C@H]1COC [Compound 77, (S)-1-(2-(methoxymethyl)-4-(4-((3-methyl-4-((1-methyl-1H-benzo[d][1,2,3]triazol-5-yl)oxy)phenyl)amino)pyrido[3,2-d]pyrimidin-6-yl)piperazin-1-yl)prop-2-en-1-one]
